Reference: ChEMBL document CHEMBL2169878 (J Med Chem, 2012)
Active and inactive are the calls of the source. The rule behind the calls is not given here.

Legend:
Salmonella typhimurium [1] = assay: Mutagenicity against Salmonella typhimurium TA98 assessed as revertants at 3 uM incubated for 90 mins followed by drug washout measured after 2 days relative to positive control; format: toxicity, organism-based; details: salmonella enterica subsp. enterica serovar typhimurium, 1.5 h
Salmonella typhimurium [2] = assay: Mutagenicity against Salmonella typhimurium TA98 assessed as revertants at 6 uM incubated for 90 mins followed by drug washout measured after 2 days relative to positive control; format: toxicity, organism-based; details: salmonella enterica subsp. enterica serovar typhimurium, 1.5 h
Salmonella typhimurium [3] = assay: Mutagenicity against Salmonella typhimurium TA98 assessed as revertants at 13 uM incubated for 90 mins followed by drug washout measured after 2 days relative to positive control; format: toxicity, organism-based; details: salmonella enterica subsp. enterica serovar typhimurium, 1.5 h
Salmonella typhimurium [4] = assay: Mutagenicity against Salmonella typhimurium TA98 assessed as revertants at 25 uM incubated for 90 mins followed by drug washout measured after 2 days relative to positive control; format: toxicity, organism-based; details: salmonella enterica subsp. enterica serovar typhimurium
Salmonella typhimurium [5] = assay: Mutagenicity against Salmonella typhimurium TA98 assessed as revertants at 50 uM incubated for 90 mins followed by drug washout measured after 2 days relative to positive control; format: toxicity, organism-based; details: salmonella enterica subsp. enterica serovar typhimurium, 1.5 h
Salmonella typhimurium [6] = assay: Mutagenicity against Salmonella typhimurium TA100 assessed as revertants at 1.5 uM incubated for 90 mins followed by drug washout measured after 2 days relative to positive control; format: toxicity, organism-based; details: salmonella enterica subsp. enterica serovar typhimurium, 1.5 h
Salmonella typhimurium [7] = assay: Mutagenicity against Salmonella typhimurium TA100 assessed as revertants at 3 uM incubated for 90 mins followed by drug washout measured after 2 days relative to positive control; format: toxicity, organism-based; details: salmonella enterica subsp. enterica serovar typhimurium, 1.5 h
Salmonella typhimurium [8] = assay: Mutagenicity against Salmonella typhimurium TA100 assessed as revertants at 6 uM incubated for 90 mins followed by drug washout measured after 2 days relative to positive control; format: toxicity, organism-based; details: salmonella enterica subsp. enterica serovar typhimurium, 1.5 h
Salmonella typhimurium [9] = assay: Mutagenicity against Salmonella typhimurium TA100 assessed as revertants at 13 uM incubated for 90 mins followed by drug washout measured after 2 days relative to positive control; format: toxicity, organism-based; details: salmonella enterica subsp. enterica serovar typhimurium
Salmonella typhimurium [10] = assay: Mutagenicity against Salmonella typhimurium TA100 assessed as revertants at 25 uM incubated for 90 mins followed by drug washout measured after 2 days relative to positive control; format: toxicity, organism-based; details: salmonella enterica subsp. enterica serovar typhimurium
Salmonella typhimurium [11] = assay: Mutagenicity against Salmonella typhimurium TA100 assessed as revertants at 50 uM incubated for 90 mins followed by drug washout measured after 2 days relative to positive control; format: toxicity, organism-based; details: salmonella enterica subsp. enterica serovar typhimurium
Plasmodium falciparum [12] = assay: Antiplasmodial activity against chloroquine-sensitive Plasmodium falciparum D10 infected in human RBC after 72 hrs by parasite lactate dehydrogenase assay; format: functional, organism-based; details: D10, 72 h
Plasmodium falciparum [13] = assay: Antiplasmodial activity against chloroquine-resistant Plasmodium falciparum W2 infected in human RBC after 72 hrs by parasite lactate dehydrogenase assay; format: functional, organism-based; details: W2, 72 h
Plasmodium falciparum [14] = assay: Antiplasmodial activity against chloroquine-sensitive Plasmodium falciparum NF54 infected in human erythrocytes assessed as inhibition of [3H]hypoxanthine incorporation incubated for 48 hrs prior to [3H]hypoxanthine addition measured after 48 hrs by liquid scintillation counting; format: functional, organism-based
Plasmodium falciparum [15] = assay: Antiplasmodial activity against chloroquine-resistant Plasmodium falciparum K1 infected in human erythrocytes assessed as inhibition of [3H]hypoxanthine incorporation incubated for 48 hrs prior to [3H]hypoxanthine addition measured after 48 hrs by liquid scintillation counting; format: functional, organism-based
[16] = biological target: T1, Chloroquine resistance transporter (Plasmodium falciparum) (UniProt Q9N623); assay: Inhibition of chloroquine-resistant Plasmodium falciparum Dd2 CRT expressed in Xenopus laevis oocyte assessed as inhibition of [3H]chloroquine uptake at 100 uM measured from 1 to 2 hrs
T1 sequence (whole entry): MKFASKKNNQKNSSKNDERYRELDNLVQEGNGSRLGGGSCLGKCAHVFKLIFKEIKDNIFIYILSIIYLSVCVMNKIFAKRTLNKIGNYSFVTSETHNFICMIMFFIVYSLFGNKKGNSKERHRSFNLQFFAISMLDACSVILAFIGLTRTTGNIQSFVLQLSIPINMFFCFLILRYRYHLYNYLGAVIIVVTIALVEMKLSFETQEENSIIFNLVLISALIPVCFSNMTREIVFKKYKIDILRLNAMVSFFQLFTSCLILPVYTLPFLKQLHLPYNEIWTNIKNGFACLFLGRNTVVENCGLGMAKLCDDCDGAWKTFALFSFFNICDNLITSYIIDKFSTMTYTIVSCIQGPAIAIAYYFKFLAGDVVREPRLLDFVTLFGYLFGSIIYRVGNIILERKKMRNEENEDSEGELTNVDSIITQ

[17] = Cytotoxicity against mouse NIH3T3 cells after 24 hrs by neutral red dye uptake assay; format: cell-based; details: read-out: TC50
[18] = Cytotoxicity against human HepG2 cells after 24 hrs by neutral red dye uptake assay; format: cell-based; details: read-out: TC50
Salmonella typhimurium [19] = assay: Mutagenicity against Salmonella typhimurium TA98 assessed as revertants at 1.5 uM incubated for 90 mins followed by drug washout measured after 2 days relative to positive control; format: toxicity, organism-based; details: salmonella enterica subsp. enterica serovar typhimurium, 1.5 h
Salmonella typhimurium [20] = assay: Mutagenicity against Salmonella typhimurium TA98 assessed as revertants at 24 uM incubated for 90 mins followed by drug washout measured after 2 days relative to positive control; format: toxicity, organism-based; details: salmonella enterica subsp. enterica serovar typhimurium, 1.5 h
Salmonella typhimurium [21] = assay: Mutagenicity against Salmonella typhimurium TA98 assessed as revertants at 40 uM incubated for 90 mins followed by drug washout measured after 2 days relative to positive control; format: toxicity, organism-based; details: salmonella enterica subsp. enterica serovar typhimurium
Salmonella typhimurium [22] = assay: Mutagenicity against Salmonella typhimurium TA98 assessed as revertants at 80 uM incubated for 90 mins followed by drug washout measured after 2 days relative to positive control; format: toxicity, organism-based; details: salmonella enterica subsp. enterica serovar typhimurium, 1.5 h
Salmonella typhimurium [23] = assay: Mutagenicity against Salmonella typhimurium TA98 assessed as revertants at 7 uM incubated for 90 mins followed by drug washout measured after 2 days relative to positive control; format: toxicity, organism-based; details: salmonella enterica subsp. enterica serovar typhimurium
Salmonella typhimurium [24] = assay: Mutagenicity against Salmonella typhimurium TA98 assessed as revertants at 15 uM incubated for 90 mins followed by drug washout measured after 2 days relative to positive control; format: toxicity, organism-based; details: salmonella enterica subsp. enterica serovar typhimurium
Salmonella typhimurium [25] = assay: Mutagenicity against Salmonella typhimurium TA98 assessed as revertants at 61 uM incubated for 90 mins followed by drug washout measured after 2 days relative to positive control; format: toxicity, organism-based; details: salmonella enterica subsp. enterica serovar typhimurium, 1.5 h
Salmonella typhimurium [26] = assay: Mutagenicity against Salmonella typhimurium TA100 assessed as revertants at 24 uM incubated for 90 mins followed by drug washout measured after 2 days relative to positive control; format: toxicity, organism-based; details: salmonella enterica subsp. enterica serovar typhimurium
Salmonella typhimurium [27] = assay: Mutagenicity against Salmonella typhimurium TA100 assessed as revertants at 61 uM incubated for 90 mins followed by drug washout measured after 2 days relative to positive control; format: toxicity, organism-based; details: salmonella enterica subsp. enterica serovar typhimurium
Salmonella typhimurium [28] = assay: Mutagenicity against Salmonella typhimurium TA100 assessed as revertants at 40 uM incubated for 90 mins followed by drug washout measured after 2 days relative to positive control; format: toxicity, organism-based; details: salmonella enterica subsp. enterica serovar typhimurium
Salmonella typhimurium [29] = assay: Mutagenicity against Salmonella typhimurium TA100 assessed as revertants at 80 uM incubated for 90 mins followed by drug washout measured after 2 days relative to positive control; format: toxicity, organism-based; details: salmonella enterica subsp. enterica serovar typhimurium
Salmonella typhimurium [30] = assay: Mutagenicity against Salmonella typhimurium TA100 assessed as revertants at 7 uM incubated for 90 mins followed by drug washout measured after 2 days relative to positive control; format: toxicity, organism-based; details: salmonella enterica subsp. enterica serovar typhimurium, 1.5 h
Salmonella typhimurium [31] = assay: Mutagenicity against Salmonella typhimurium TA100 assessed as revertants at 15 uM incubated for 90 mins followed by drug washout measured after 2 days relative to positive control; format: toxicity, organism-based; details: salmonella enterica subsp. enterica serovar typhimurium
Plasmodium berghei [32] = assay: Antimalarial activity against Plasmodium berghei ANKA expressing GFP infected in mouse assessed as reduction in parasitemia at 100 mg/kg, po administered 24 hrs post-infection measured 48 hrs post-dosing by flow cytometric analysis; format: functional; parameters: scale not given: the % may be the effect or the level left
Plasmodium berghei [33] = assay: Antimalarial activity against Plasmodium berghei ANKA expressing GFP infected in mouse assessed as reduction in parasitemia at 30 mg/kg, po administered 24 hrs post-infection measured 48 hrs post-dosing by flow cytometric analysis; format: functional; parameters: scale not given: the % may be the effect or the level left
Plasmodium berghei [34] = assay: Antimalarial activity against Plasmodium berghei ANKA expressing GFP infected in mouse assessed as mean survival days at 100 mg/kg, po administered 24 hrs post-infection (reference value: 6 to 7 days); format: functional
Plasmodium berghei [35] = assay: Antimalarial activity against Plasmodium berghei ANKA expressing GFP infected in mouse assessed as mean survival days at 30 mg/kg, po administered 24 hrs post-infection (reference value: 6 to 7 days); format: functional
Plasmodium berghei [36] = assay: Antimalarial activity against Plasmodium berghei ANKA expressing GFP infected in mouse assessed as cure from infection at 100 mg/kg, po administered 24 hrs post-infection measured on day 30; format: functional, organism-based; parameters: dose 100 mg/kg
Plasmodium berghei [37] = assay: Antimalarial activity against Plasmodium berghei ANKA expressing GFP infected in mouse assessed as cure from infection at 30 mg/kg, po administered 24 hrs post-infection measured on day 30; format: functional, organism-based; parameters: dose 30 mg/kg

Fc1cc(C(Nc2ccnc3cc(Cl)ccc23)c2ccc(Cl)cc2)ccc1CN1CCCC1 (racemic)
Activity (Salmonella typhimurium [1]): 5%
Activity (Salmonella typhimurium [2]): 3%
Activity (Salmonella typhimurium [3]): 3%
Activity (Salmonella typhimurium [4]): 11%
Activity (Salmonella typhimurium [5]): 8%
Activity (Salmonella typhimurium [6]): 12%
Activity (Salmonella typhimurium [7]): 10%
Activity (Salmonella typhimurium [8]): 10%
Activity (Salmonella typhimurium [9]): 11%
Activity (Salmonella typhimurium [10]): 11%
Activity (Salmonella typhimurium [11]): 11%
IC50 (Plasmodium falciparum [12]): 59 nM
IC50 (Plasmodium falciparum [13]): 45 nM
IC50 (Plasmodium falciparum [14]): 13 nM
IC50 (Plasmodium falciparum [15]): 20 nM
inhibition [16]: 70%
CC50 at 24 h [17]: 25000 nM
CC50 at 24 h [18]: 12000 nM
Activity (Salmonella typhimurium [19]): 4%

Clc1ccc2c(NC(c3ccccc3)(c3ccc(CN4CCCC4)c(Cl)c3)c3ccc(CN4CCCC4)c(Cl)c3)ccnc2c1
Activity (Salmonella typhimurium [20]): 5%
Activity (Salmonella typhimurium [21]): 3%
Activity (Salmonella typhimurium [22]): 0%
Activity (Salmonella typhimurium [23]): 1%
Activity (Salmonella typhimurium [24]): 1%
Activity (Salmonella typhimurium [25]): 5%
Activity (Salmonella typhimurium [26]): 6%
Activity (Salmonella typhimurium [27]): 4%
Activity (Salmonella typhimurium [28]): 4%
Activity (Salmonella typhimurium [29]): 0%
Activity (Salmonella typhimurium [30]): 4%
Activity (Salmonella typhimurium [31]): 5%
IC50 (Plasmodium falciparum [12]): 26 nM
IC50 (Plasmodium falciparum [13]): 52 nM
IC50 (Plasmodium falciparum [14]): 9.5 nM
IC50 (Plasmodium falciparum [15]): 8.4 nM
Activity (Plasmodium berghei [32]): 99.3%
Activity (Plasmodium berghei [33]): 99.4%
MSD (Plasmodium berghei [34]): 21.3 days
MSD (Plasmodium berghei [35]): 7 days
Activity (Plasmodium berghei [36]): inactive
Activity (Plasmodium berghei [37]): inactive
inhibition [16]: 72%
CC50 at 24 h [17]: 15000 nM
CC50 at 24 h [18]: 6100 nM
